The test system of the first assay is Endogenous Huntingtin Protein. In words: Endogenous Huntingtin Protein Assay (ELISA-based MSD electrochemiluminescence). The assay is classed as cell-based. The settings on record: Table 2; MSD plates coated with MW1 (expanded polyglutamine) or MAB2166 capture antibody; "inactive" = result above the detection limit of the assay. How it is done:
Compounds of Formula (I) were tested using the Meso Scale Discovery (MSD) Assay provided in International Application No. PCT/US2016/066042, filed on Dec. 11, 2016 and claiming priority to U.S. Provisional Application 62/265,652 filed on Dec. 10, 2015, the entire contents of which are incorporated herein by reference.
The Endogenous Huntingtin Protein assay used in Biological Example 1 was developed using the ELISA-based MSD electrochemiluminescence assay platform.
Meso Scale Discovery (MSD) 96-well or 384-well plates were coated overnight at 4° C. with MW1 (expanded polyglutamine) or MAB2166 monoclonal antibody (for capture) at a concentration of 1 μg/mL in PBS (30 μL per well). Plates were then washed three times with 300 μL wash buffer (0.05% Tween-20 in PBS) and blocked (100 μL blocking buffer; 5% BSA in PBS) for 4-5 hours at room temperature with rotational shaking and then washed three times with wash buffer.
Samples (25 μL) were transferred to the antibody-coated MSD plate and incubated overnight at 4° C. After removal of the lysates, the plate was washed three times with wash buffer, and 25 μL of #56565 (Cell signaling; rabbit monoclonal) secondary antibody (diluted to 0.25 μg/mL in 0.05% Tween-20 in blocking buffer) was added to each well and incubated with shaking for 1 Hour at room temperature. Following incubation with the secondary antibody, the wells were rinsed with wash buffer after which 25 μL of goat anti-rabbit SULFO TAG secondary detection antibody (required aspect of the MSD system) (diluted to 0.25 μg/mL in 0.05% Tween-20 in blocking buffer) was added to each well and incubated with shaking for 1 hour at room temperature. After rinsing three times with wash buffer, 150 μL of read buffer T with surfactant (MSD) were added to each empty well, and the plate was imaged on a SI 6000 imager (MSD) according to manufacturers' instructions provided for 96- or 384-well plates.
(In general: ELISA stands for enzyme-linked immunosorbent assay.)
For the compound `Cc1cn2cc(-c3ccc(-c4cnc(N5C[C@@H](C)N[C@@H](C)C5)nn4)c(O)c3)ncc2n1` [Cpd 86, 2-{3-[(3R,5S)-3,5-dimethylpiperazin-1-yl]-1,2,4-triazin-6-yl}-5-(2-methylimidazo[1,2-a]pyrazin-6-yl)phenol], the IC50 amounted to 6 nM.
On the same count and under the same terms, for `CC(C)[C@H]1CN(c2ncc(-c3ccc(-n4ncc5cncnc54)cc3O)nn2)CCN1` [Cpd 162, 2-{3-[(3S)-3-(propan-2-yl)piperazin-1-yl]-1,2,4-triazin-6-yl}-5-(1H-pyrazolo[3,4-d]pyrimidin-1-yl)phenol] the value was 25.4 nM; for `CC[C@H]1CN(c2ncc(-c3ccc(-c4c[nH]nc4F)cc3O)nn2)CCN1` [Cpd 123, 2-{3-[(3S)-3-ethylpiperazin-1-yl]-1,2,4-triazin-6-yl}-5-(3-fluoro-1H-pyrazol-4-yl)phenol], 11.2 nM.
Turning to `Cc1cnc2nc(-c3ccc(-c4cnc(N5C[C@@H](C)N[C@@H](C)C5)nn4)c(O)c3)sc2n1` [Cpd 119, 2-{3-[(3R,5S)-3,5-dimethylpiperazin-1-yl]-1,2,4-triazin-6-yl}-5-(6-methyl[1,3]thiazolo[4,5-b]pyrazin-2-yl)phenol], the “IC50 (nM)” value was “inactive”.
`CC(C)[C@H]1CN(c2ncc(-c3ccc(-c4ccncc4)cc3O)nn2)CCN1` [Cpd 161, 2-{3-[(3S)-3-(propan-2-yl)piperazin-1-yl]-1,2,4-triazin-6-yl}-5-(pyridin-4-yl)phenol] came in with a concentration for half-maximal inhibition (IC50) of 60.5 nM.
In the case of `Oc1cc(-c2cn[nH]c2)ccc1-c1cnc(N2CCNC(C3(O)CC3)C2)nn1` (stereo not shown) [Cpd 6, 2-{3-[3-(1-hydroxycyclopropyl)piperazin-1-yl]-1,2,4-triazin-6-yl}-5-(1H-pyrazol-4-yl)phenol], half-maximal inhibition (IC50) was put at 6.7 nM.
Still for that read-out and setting: as for `CC(C)[C@H]1CN(c2ncc(-c3ccc(-c4ccns4)cc3O)nn2)CCN1` [Cpd 270, 2-{3-[(3S)-3-(propan-2-yl)piperazin-1-yl]-1,2,4-triazin-6-yl}-5-(1,2-thiazol-5-yl)phenol], the figure is 29.2 nM; as for `Cn1cc2cc(-c3cnc(-c4cnc(N5CCN[C@@H](C6CC6)C5)nn4)c(O)c3)cc(F)c2n1` [Cpd 181, 2-{3-[(3S)-3-cyclopropylpiperazin-1-yl]-1,2,4-triazin-6-yl}-5-(7-fluoro-2-methyl-2H-indazol-5-yl)pyridin-3-ol], 6.2 nM.
Compound `C[C@H]1CN(c2ncc(-c3ccc(-c4cn[nH]c4)cc3O)nn2)CCN1` [Cpd 165, 2-{3-[(3S)-3-methylpiperazin-1-yl]-1,2,4-triazin-6-yl}-5-(1H-pyrazol-4-yl)phenol] returned an IC50 of 124 nM.
The compound `Oc1cc(-c2cn[nH]c2)ccc1-c1cnc(N2CCNC(c3ccncc3)C2)nn1` (stereo not shown) [Cpd 62, 5-(1H-pyrazol-4-yl)-2-{3-[3-(pyridin-4-yl)piperazin-1-yl]-1,2,4-triazin-6-yl}phenol] showed an IC50 of 2390 nM.
The same measure, in the same setting: for `C[C@@H]1CN(c2ncc(-c3ccc(-c4cn[nH]c4)cc3O)nn2)C[C@H](C2CCC2)N1` [Cpd 231, 2-{3-[(3S,5R)-3-cyclobutyl-5-methylpiperazin-1-yl]-1,2,4-triazin-6-yl}-5-(1H-pyrazol-4-yl)phenol] the value was 21.9 nM; for `Oc1cc(-c2c[nH]nc2Cl)ccc1-c1cnc(N2CCN[C@@H](C3CC3)C2)nn1` [Cpd 163, 5-(3-chloro-1H-pyrazol-4-yl)-2-{3-[(3S)-3-cyclopropylpiperazin-1-yl]-1,2,4-triazin-6-yl}phenol], 4.2 nM.
On the same count and under the same terms, as for `CC[C@H]1CN(c2ncc(-c3ccc(-c4cnc5nn(C)nc5c4)cc3O)nn2)C[C@@H](C)N1` [Cpd 214, 2-{3-[(3S,5R)-3-ethyl-5-methylpiperazin-1-yl]-1,2,4-triazin-6-yl]-5-(2-methyl-2H-[1,2,3]triazolo[4,5-b]pyridin-6-yl)phenol], the figure is 36.6 nM.
Still for that read-out and setting: for `CC(C)[C@H]1CN(c2ncc(-c3ccc(-c4cnc5nn(C)nc5c4)cc3O)nn2)CCN1` [Cpd 212, 5-(2-methyl-2H-[1,2,3]triazolo[4,5-b]pyridin-6-yl)-2-{3-[(3S)-3-(propan-2-yl)piperazin-1-yl]-1,2,4-triazin-6-yl}phenol] the value was 3.3 nM; for `Cn1cc2cc(-c3ccc(-c4cnc(N5CCNC(CO)C5)nn4)c(O)c3)cc(F)c2n1` (stereo not shown) [Cpd 65, 5-(7-fluoro-2-methyl-2H-indazol-5-yl)-2-{3-[3-(hydroxymethyl)piperazin-1-yl]-1,2,4-triazin-6-yl}phenol], 1.6 nM.
Compound `C=C[C@H]1CN(c2ncc(-c3ccc(-c4cn[nH]c4)cc3O)nn2)C[C@@H](C)N1` [Cpd 249, 2-{3-[(3S,5R)-3-ethenyl-5-methylpiperazin-1-yl]-1,2,4-triazin-6-yl]-5-(1H-pyrazol-4-yl)phenol] yielded an IC50 of 319 nM.
Still for that read-out and setting: for `Oc1cc(-c2cn[nH]c2)ccc1-c1cnc(N2CCN3CCCC3C2)nn1` (stereo not shown) [Cpd 284, 2-[3-(hexahydropyrrolo[1,2-a]pyrazin-2(1H)-yl)-1,2,4-triazin-6-yl]-5-(1H-pyrazol-4-yl)phenol] the value was 91.4 nM.
On the same count and under the same terms, for `CC(C)(O)C1CN(c2ncc(-c3ccc(-c4c[nH]nc4F)cc3O)nn2)CCN1` (stereo not shown) [Cpd 4, 5-(3-fluoro-1H-pyrazol-4-yl)-2-{3-[3-(2-hydroxypropan-2-yl)piperazin-1-yl]-1,2,4-triazin-6-yl}phenol] the value was 4.5 nM; for `CC(C)C1CN(c2ncc(-c3ccc(-c4cn[nH]c4)cc3O)nn2)CCN1C` (stereo not shown) [Cpd 34, 2-{3-[4-methyl-3-(propan-2-yl)piperazin-1-yl]-1,2,4-triazin-6-yl}-5-(1H-pyrazol-4-yl)phenol], 42 nM; for `Oc1cc(-c2ccncn2)ccc1-c1cnc(N2CCN[C@@H](C3CC3)C2)nn1` [Cpd 192, 2-{3-[(3S)-3-cyclopropylpiperazin-1-yl]-1,2,4-triazin-6-yl}-5-(pyrimidin-4-yl)phenol], 34.2 nM.
As to `Cc1cc(C)n2nc(-c3ccc(-c4cnc(N5C[C@@H](C)N[C@@H](C)C5)nn4)c(O)c3)nc2n1` [Cpd 117, 2-{3-[(3R,5S)-3,5-dimethylpiperazin-1-yl]-1,2,4-triazin-6-yl}-5-(5,7-dimethyl[1,2,4]triazolo[1,5-a]pyrimidin-2-yl)phenol], the “IC50 (nM)” value is “inactive”.
`Oc1cc(-c2ccncc2)ccc1-c1cnc(N2CCN[C@@H](C3CC3)C2)nn1` [Cpd 177, 2-{3-[(3S)-3-cyclopropylpiperazin-1-yl]-1,2,4-triazin-6-yl}-5-(pyridin-4-yl)phenol] came in with an IC50 of 29 nM.
On the same count and under the same terms, for `CC(C)(C)[C@H]1CN(c2ncc(-c3cc(F)c(-c4cn[nH]c4)cc3O)nn2)CCN1` [Cpd 164, 2-{3-[(3S)-3-tert-butylpiperazin-1-yl]-1,2,4-triazin-6-yl}-4-fluoro-5-(1H-pyrazol-4-yl)phenol] the value was 4 nM; for `[2H]C([2H])([2H])n1cc(-c2ccc(-c3cnc(N4CCNC(C(C)(C)O)C4)nn3)c(O)c2)cn1` (stereo not shown) [Cpd 19, 2-{3-[3-(2-hydroxypropan-2-yl)piperazin-1-yl]-1,2,4-triazin-6-yl}-5-[1-(^2H3)methyl-1H-pyrazol-4-yl]phenol], 17.1 nM.
Same read-out and setting: as for `Cc1nc(-c2ccc(-c3cnc(N4CCN[C@@H](C5CC5)C4)nn3)c(O)c2)cs1` [Cpd 246, 2-{3-[(3S)-3-cyclopropylpiperazin-1-yl]-1,2,4-triazin-6-yl}-5-(2-methyl-1,3-thiazol-4-yl)phenol], the figure is 28.4 nM.
The same measure, in the same setting: for `CCc1cc(-c2ccc(-c3cnc(N4CCN[C@@H](C(C)C)C4)nn3)c(O)c2)cn2cc(C)nc12` [Cpd 138, 5-(8-ethyl-2-methylimidazo[1,2-a]pyridin-6-yl)-2-{3-[(3S)-3-(propan-2-yl)piperazin-1-yl]-1,2,4-triazin-6-yl}phenol] the value was 19.9 nM; for `Cn1cc(-c2ccc(-c3cnc(N4CCN[C@@H](C(C)(C)C)C4)nn3)c(O)c2)cn1` [Cpd 21, 2-{3-[(3S)-3-tert-butylpiperazin-1-yl]-1,2,4-triazin-6-yl]-5-(1-methyl-1H-pyrazol-4-yl)phenol], 20.8 nM.
Take `CC(C)(C)[C@H]1CN(c2ncc(-c3ccc(-c4cn[nH]c4)cc3O)nn2)CCN1` [Cpd 16, 2-{3-[(3S)-3-tert-butylpiperazin-1-yl]-1,2,4-triazin-6-yl}-5-(1H-pyrazol-4-yl)phenol]: inhibition was half-maximal at 13.2 nM (IC50).
Consider `C[C@H]1CN(c2ncc(-c3ccc(-c4cn[nH]c4F)cc3O)nn2)C[C@@H](C2CC2)N1` [Cpd 215, 2-{3-[(3R,5S)-3-cyclopropyl-5-methylpiperazin-1-yl]-1,2,4-triazin-6-yl}-5-(5-fluoro-1H-pyrazol-4-yl)phenol], for which the 50% inhibitory concentration (IC50) was determined as 114 nM.
Consider `CC1(C2CN(c3ncc(-c4ccc(-c5cn[nH]c5)cc4O)nn3)CCN2)CC1` (stereo not shown) [Cpd 134, 2-{3-[3-(1-methylcyclopropyl)piperazin-1-yl]-1,2,4-triazin-6-yl}-5-(1H-pyrazol-4-yl)phenol], for which 14.9 nM corresponded to half-maximal inhibition (IC50).

Staying with this assay, now noted: Table 3; selected compounds from WO/2019/191229 A1, same MSD assay.
On to `CC1CN(c2ncc(-c3ccc(-c4cnn(C)c4)cc3O)nn2)CC(C)N1` (stereo not shown) [WO/2019/191229 A1 Cpd 263, reference compound], for which half-maximal inhibition (IC50) was put at 352 nM.

The IC50 is the point on the concentration scale where inhibition reaches its midpoint. A lower IC50 goes with greater potency in that assay.

Values taken from patent US20230234942A1, “COMPOUNDS FOR TREATING HUNTINGTON'S DISEASE” (PTC Therapeutics, Inc., priority 2020, published 2023).
